Reference: patent publication US7323570B2, “Farnesyltransferase inhibitors” (Abbott Laboratories, priority 2000, dated 2008)

Target: T1, farnesyltransferase (Rattus norvegicus, UniProt Q02293+Q04631)
T1 construct: The enzyme can be purified according to Cell, 62: 81-88 (1990), utilizing steps one, two, and three; from tissue; host or cells: rat brain
Assay: Inhibition of farnesyltransferase (3H-farnesyldiphosphate / H-Ras filter assay)
Type: biochemical
Settings: 37° C., 30 minutes; for inhibition at 0.1 µM: test compound 10^−7M
Excerpt: The ability of the compounds of the present invention to inhibit farnesyltransferase can be measured according to the method described in J. Biol. Chem., 266: 14603 (1991) or J. Biol. Chem., 270:660-664 (1995). Procedures for determination of the inhibition of farnesylation of the oncogene protein Ras are described in J. Biol. Chem., 266:15575-15578 (1991) and U.S. Pat. No. 5,245,061. Inhibition of rat brain farnesyltransferase can also be measured in vitro using an Amersham Life Science commercial scintillation proximity assay kit and substituting a biotin-K Ras B fragment (0.1 μM final concentration) for the biotin-lamin substrate provided by Amersham. The enzyme can be purified according to Cell, 62: 81-88 (1990), utilizing steps one, two, and three. […] The percent inhibition of the farnesylation caused by the compounds of the present invention (at 10^−6 M) compared to an uninhibited control sample can be evaluated in the same Amersham test system.
The mixture was brought to 37° C., treated with enzyme, incubated for 30 minutes, treated with 1 M HCl/ethanol (1 mL) to stop the reaction, stirred for 15 minutes at room temperature, diluted with ethanol (2 mL), filtered through a 2.5 cm glass microfiber filter (Whatman) with ethanol rinses (4×2 mL). The glass filter was transferred to a scintillation vial and treated with scintillation fluid (5 mL). The radioisotope retained on the glass fiber filter was counted and reflected the activity of the enzyme.

T1 sequence (Q02293 whole entry, one chain of several): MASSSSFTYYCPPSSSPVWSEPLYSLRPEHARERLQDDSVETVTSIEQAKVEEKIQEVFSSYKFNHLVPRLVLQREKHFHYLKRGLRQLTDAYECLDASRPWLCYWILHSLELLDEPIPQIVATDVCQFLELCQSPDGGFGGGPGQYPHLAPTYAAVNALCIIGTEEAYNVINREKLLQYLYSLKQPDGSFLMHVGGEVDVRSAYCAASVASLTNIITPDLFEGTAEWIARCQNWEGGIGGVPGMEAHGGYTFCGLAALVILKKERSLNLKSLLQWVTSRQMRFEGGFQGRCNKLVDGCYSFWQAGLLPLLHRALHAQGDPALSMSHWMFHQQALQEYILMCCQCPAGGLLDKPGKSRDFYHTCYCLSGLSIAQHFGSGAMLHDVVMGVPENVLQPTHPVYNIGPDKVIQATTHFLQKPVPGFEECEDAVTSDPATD

| Structure (SMILES) | inhibition at 0.01 µM (test compound 10^−8M) | inhibition at 0.1 µM |
| --- | --- | --- |
| COc1cccc(-c2cc(C#N)ccc2OCC(F)(c2ccc(C#N)cc2)c2cncn2C)c1 (stereo not drawn) [Example 58, 6-(2-(4-cyanophenyl)-2-fluoro-2-(1-methyl-1H-imidazol-5-yl)ethoxy)-3′-methoxy-1,1′-biphenyl-3-carbonitrile] | 96% |  |
| Cn1cncc1C(OCc1ccc(Cl)cc1-c1ccccc1)c1ccc(C#N)cc1 (stereo not drawn) [Example 2, 4-(((5-chloro(1,1′-biphenyl)-2-yl)methoxy)(1-methyl-1H-imidazol-5-yl)methyl)benzonitrile] |  | > 66% |
| Cn1cncc1C(OCc1c(-c2cccc(Cl)c2)cc(C#N)c(=O)n1C)c1ccc(Cl)cc1 (stereo not drawn) [Example 43, 5-(3-chlorophenyl)-6-(((4-chlorophenyl)(1-methyl-1H-imidazol-5-yl)methoxy)methyl)-1-methyl-2-oxo-1,2-dihydro-3-pyridinecarbonitrile] |  | > 81% |
